From paper PMC11220592 (Chemical Science, 2024)
Like-named read-outs stand apart in the source and are kept apart here.

How the values were obtained:
[1] = molecular target: SARS-CoV-2 nsp13 (Severe acute respiratory syndrome coronavirus 2, UniProt P0DTD1); format: binding
[2] = molecular target: T1, SARS-CoV-2 helicase (nsp13) (Severe acute respiratory syndrome coronavirus 2, UniProt P0DTD1); details: read-out: IC50 for unwinding activity
[3] = molecular target: T1, SARS-CoV-2 helicase (nsp13)
[4] = 100 nM nsp13, compound at 1 μM, 10 nM probe

Compound | fluorescence intensity of BODIPY FL ATP-γ-S with nsp13 [1, 4] | fluorescence intensity of BODIPY FL ATP-γ-S with nsp13 [1] | also measured
Nc1nc2nc[nH]c2c(=S)[nH]1 [6-TG, 6-thioguanine] | did not observe any apparent decrease in the fluorescence intensity |  | 
Nc1ccc([O-])c(=O)cc1.Nc1ccc([O-])c(=O)cc1.Nc1ccc([O-])c(=O)cc1.[Bi+3] [Bi(Tro-NH2)3, Bi(5-aminotropolonate)3] |  |  | IC50 [2]: 360 ± 20 nM; fold lower ATPase IC50 than that of Bi(NAC)3 [3]: over 30 fold; IC50 ([3]; read-out: IC50 for ATPase): 30 nM
N[C@@H](CCC(=O)N[C@@H](CS)C(=O)NCC(=O)O)C(=O)O [GSH, glutathione] |  | did not observe any apparent decrease in the fluorescence intensity | 
CC(C)c1cccc(=O)c(O)c1 [Hino, hinokitiol] | did not observe any apparent decrease in the fluorescence intensity |  | 
CC(=O)N[C@@H](CS)C(=O)O [NAC, N-acetyl cysteine] | did not observe any apparent decrease in the fluorescence intensity |  | 
colloidal bismuth subcitrate [CBS] |  | decreased fluorescence intensities | 
